This passage reports IC50 and activity results from patent EP3907227A1, “TRILOBINE DERIVATIVES AND THEIR USE THEREOF IN THE TREATMENT OF MALARIA” (Institut Pasteur, priority 2020, dated 2021).

One experiment concerns P. falciparum NF54 (drug-sensitive line). As to the kind of experiment: Inhibition of proliferation of asynchronous asexual cultures (SYBR Green I based assay, 72h). As to conditions: Plasmodium falciparum, NF54, 72 h, SYBR Green I; read-out: Malaria CI50. Format: cell-based. The protocol: Compounds were provided at a concentration of 10 mM in DMSO.
P. falciparum parasite are cultured using standard protocol (Trager and Jensen, Science 1976, 193(4254), 673-675). Briefly, parasites are cultured at 4% hematocrit (O+ human blood, Etablissement Français du Sang, France) in RPMI1640 complemented with 0.1% Albumax I, HEPES buffer, hypoxanthine, and gentamycin. They are incubated at 37°C under an atmosphere of 5% CO2 and 5% O2.
Compounds of the invention were assayed for a first screen at 5µM in duplicate against asynchronous asexual cultures of P. falciparum NF54 (drug-sensitive line) containing mostly rings (2% hematocrit. 0.5% starting parasitemia). Plates were incubated for 72h at 37°C under a reduced oxygen atmosphere. Parasite growth was assessed using the SYBR Green I based assay.
IC50 were determined using Graphpad Prism 6 software. Dihydroartemisinin (starting concentration 50nM) and DMSO were used as positive and negative controls.
On to `COc1cc2c3c4c1Oc1cc5c(cc1O4)C(Cc1ccc(OCC4CO4)c(c1)Oc1ccc(cc1)CC3N(C)CC2)N(C)CC5` (centres unmarked) [Compound 73], for which the IC50 is 299 ± 25 nM.

Consider `COc1cc2c3c4c1Oc1cc5c(cc1O4)C(Cc1ccc(OC4CCCN(C)CC4)c(c1)Oc1ccc(cc1)CC3N(C)CC2)N(C)CC5` (centres unmarked) [Compound 74], for which the IC50 was 297 ± 42 nM.

For `COc1cc2c3c4c1Oc1cc5c(cc1O4)C(Cc1ccc(OCCC4CCCN4C)c(c1)Oc1ccc(cc1)CC3N(C)CC2)N(C)CC5` (centres unmarked) [Compound 75], the IC50 was 352 ± 54 nM.

As for `CCN(CC)CCOc1ccc2cc1Oc1ccc(cc1)CC1c3c(cc(OC)c4c3Oc3cc5c(cc3O4)CCN(C)C5C2)CCN1C` (centres unmarked) [Compound 78], the IC50 stood at 331 ± 29 nM.

As to `COc1cc2c3c4c1Oc1cc5c(cc1O4)C(Cc1ccc(OCCN(C)C)c(c1)Oc1ccc(cc1)CC3N(C)CC2)N(C)CC5` (centres unmarked) [Compound 82], the IC50 was found to be 260 ± 34 nM.

`CCN(CC)CCCNC(=O)N1CCc2cc3c4cc2C1Cc1ccc(OC)c(c1)Oc1ccc(cc1)CC1c2c(cc(OC)c(c2O4)O3)CCN1C(=O)NCCCN(CC)CC` (centres unmarked) [Compound 87]: the IC50 was determined as 441 ± 67 nM.

`CCN(CC)CCCNC(=O)N1CCc2cc3c4cc2C1Cc1ccc(OC)c(c1)Oc1ccc(cc1)CC1c2c(cc(OC)c(c2O4)O3)CCN1C` (centres unmarked) [Compound 88]: the IC50 stood at 297 ± 31 nM.

Regarding `CCN(CC)CCCNC(=O)N1CCc2cc(OC)c3c4c2C1Cc1ccc(cc1)Oc1cc(ccc1OC)CC1c2cc(c(cc2CCN1C)O3)O4` (centres unmarked) [Compound 89], the IC50 amounted to 428 ± 77 nM.

In the case of `CN(C)CCCOc1ccc2cc1Oc1ccc(cc1)CC1c3c(cc(O)c4c3Oc3cc5c(cc3O4)CCN(C)C5C2)CCN1C` (centres unmarked) [Compound 113], the IC50 worked out at 153 ± 58 nM.

With `COc1cc2c3c4c1Oc1cc5c(cc1O4)C(Cc1ccc(OCCCN(C)C)c(c1)Oc1ccc(cc1)CC3NCC2)N(C)CC5` (centres unmarked) [Compound 116], the IC50 is 263 ± 50 nM.

`CN(C)Cc1cc2cc(c1O)Oc1ccc(cc1)CC1c3c(c(CN(C)C)c(O)c4c3Oc3cc5c(cc3O4)CCN(C)C5C2)CCN1C` (centres unmarked) [Compound 123]: the IC50 amounted to 283 ± 155 nM.

Staying with this experiment, now noted: Plasmodium falciparum, NF54, 72 h, same conditions as Table 1 (NF54, 72h); read-out: mean IC50 +/- SD.
Regarding `COc1ccc2cc1Oc1ccc(cc1)C[C@H]1c3c(cc(OC)c4c3Oc3cc5c(cc3O4)CCN(C)[C@H]5C2)CCN1C` [Isotrilobine, reference compound], the IC50 was found to be 1780 nM.

The same experiment, now with this note: Plasmodium falciparum; NF54, 72h, SYBR Green I; read-out: Malaria CI50.
With `CN1CCc2cc3c4cc2C1Cc1ccc(O)c(c1)Oc1ccc(cc1)CC1c2c(cc(O)c(c2O4)O3)CCN1C` (centres unmarked) [Compound 110], the IC50 was found to be 146 ± 39 nM.

As to `CN1CCc2cc3c4cc2C1Cc1ccc(O)c(c1)Oc1ccc(cc1)CC1NCCc2cc(O)c(c(c21)O4)O3` (centres unmarked) [Compound 122], the IC50 was determined as 248 ± 58 nM.

Still in this experiment, the particulars now being: Plasmodium falciparum; first screen at 5µM in duplicate, 72h, NF54; read-out: % survival @5uM.
For the compound `COc1cc2c3c4c1Oc1cc5c(cc1O4)C(Cc1ccc(OCC4CO4)c(c1)Oc1ccc(cc1)CC3N(C)CC2)N(C)CC5` (centres unmarked) [Compound 73], the activity at 5 µM came to 15.8%.

With `COc1cc2c3c4c1Oc1cc5c(cc1O4)C(Cc1ccc(OC4CCCN(C)CC4)c(c1)Oc1ccc(cc1)CC3N(C)CC2)N(C)CC5` (centres unmarked) [Compound 74], the activity at 5 µM is 14.7%.

As to `COc1cc2c3c4c1Oc1cc5c(cc1O4)C(Cc1ccc(OCCC4CCCN4C)c(c1)Oc1ccc(cc1)CC3N(C)CC2)N(C)CC5` (centres unmarked) [Compound 75], the activity at 5 µM was found to be 14.9%.

Regarding `CCN(CC)CCOc1ccc2cc1Oc1ccc(cc1)CC1c3c(cc(OC)c4c3Oc3cc5c(cc3O4)CCN(C)C5C2)CCN1C` (centres unmarked) [Compound 78], the activity at 5 µM came out at 12.6%.

With `COc1cc2c3c4c1Oc1cc5c(cc1O4)C(Cc1ccc(OCCN(C)C)c(c1)Oc1ccc(cc1)CC3N(C)CC2)N(C)CC5` (centres unmarked) [Compound 82], the activity at 5 µM was 13.4%.

On to `CCN(CC)CCCNC(=O)N1CCc2cc3c4cc2C1Cc1ccc(OC)c(c1)Oc1ccc(cc1)CC1c2c(cc(OC)c(c2O4)O3)CCN1C(=O)NCCCN(CC)CC` (centres unmarked) [Compound 87], for which the activity at 5 µM came to 11.3%.

For `CCN(CC)CCCNC(=O)N1CCc2cc3c4cc2C1Cc1ccc(OC)c(c1)Oc1ccc(cc1)CC1c2c(cc(OC)c(c2O4)O3)CCN1C` (centres unmarked) [Compound 88], the activity at 5 µM is 14.7%.

For the compound `CCN(CC)CCCNC(=O)N1CCc2cc(OC)c3c4c2C1Cc1ccc(cc1)Oc1cc(ccc1OC)CC1c2cc(c(cc2CCN1C)O3)O4` (centres unmarked) [Compound 89], the activity at 5 µM was 14.4%.

Still in this experiment, the particulars now being: same conditions as Table 1 (NF54, 72h); read-out: mean IC50 +/- SD.
Consider `COc1ccc2cc1Oc1ccc(cc1)C[C@@H]1NCCc3cc(OC)c4c(c31)Oc1cc3c(cc1O4)CCN[C@H]3C2` [Nortrilobine, reference compound], for which the IC50 was 1220 ± 130 nM.
